Test results as given in paper PMC10574094, “Discovery of a SHP2 Degrader with In Vivo Anti-Tumor Activity” (Molecules, 2023).

Columns and labels:
full-length SHP2 (1-528) = biological target: T1, full-length SHP2 (1-528) (Homo sapiens, UniProt Q06124); test: SHP2 allosteric inhibition assay (DiFMUP substrate); format: biochemical; conditions: full length SHP2, enzymatic assay
T1 construct: The SHP2 protein (Aa 1–528) was cloned into a pET-21a(+) vector; His; made in house; host or cells: E. coli BL21(DE3)
T1 sequence (Q06124 1-528): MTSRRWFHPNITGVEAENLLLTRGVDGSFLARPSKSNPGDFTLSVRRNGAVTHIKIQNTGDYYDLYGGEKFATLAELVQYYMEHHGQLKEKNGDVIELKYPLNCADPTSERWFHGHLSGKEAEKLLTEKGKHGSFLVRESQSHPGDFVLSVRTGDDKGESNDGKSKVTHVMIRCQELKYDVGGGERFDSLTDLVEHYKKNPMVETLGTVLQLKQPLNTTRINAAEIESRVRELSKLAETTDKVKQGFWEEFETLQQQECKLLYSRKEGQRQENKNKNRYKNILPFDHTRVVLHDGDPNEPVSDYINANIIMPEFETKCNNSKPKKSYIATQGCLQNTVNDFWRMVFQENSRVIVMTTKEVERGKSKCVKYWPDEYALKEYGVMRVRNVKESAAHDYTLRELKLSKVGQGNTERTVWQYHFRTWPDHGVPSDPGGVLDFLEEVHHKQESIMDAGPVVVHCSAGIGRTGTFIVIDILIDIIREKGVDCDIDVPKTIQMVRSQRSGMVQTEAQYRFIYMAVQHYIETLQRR
Description: The SHP2 protein (Aa 1–528) was cloned into a pET-21a(+) vector. Bacterial BL21(DE3) (Novagen) was used as an expression host, and the induction of protein expression was carried out in LB media with 1 mM IPTG at 18 °C overnight. Cell pellets were stored at −80 °C for subsequent protein purification. Protein purification was conducted at 4 °C. Frozen cell pellets were lysed by sonication in 40 mL cold lysis buffer (50 mM Tris-HCl, pH 8.0, 150 mM NaCl, 5 mM imidazole, and 1 mM PMSF) per liter cell pellet. Cell lysates were clarified by centrifuging for 15 min at 6000 rpm. The supernatant was incubated with HisPur Ni-NTA resin (Thermo Scientific, Waltham, MA, USA) for 2 h, and then packed onto a column and washed with 50 resin volume of buffer A (50 mM Tris-HCl, pH 8.0, 500 mM NaCl, 5 mM imidazole). The HIS-tagged proteins were eluted with Buffer B (50 mM Tris-HCl, pH = 8.0, 500 mM NaCl, 300 mM imidazole,). Pooled HIS-protein-containing fractions were concentrated, loaded onto a HiLoad 26/600 Superdex 75 column (GE Healthcare Biosciences, Piscataway, NJ, USA), and eluted with storage buffer (50 mM Tris-HCl, pH 8.0, 150 mM NaCl, 1 mM DTT, 10% glycerol). Proteins used for inhibition assays were purified using Ni-NTA resin (Qiagen, Hilden, Germany) followed by size exclusion column chromatography (ÄKTA pure, Cytiva, Marlborough, MA, USA) and the purity was determined to be >95% by SDS-PAGE and Coomassie staining. The protein was aliquoted and stored at −80 °C.
The catalytic activity of SHP2 (1-528) was assayed with 6,8-Difluoro-4-Methylumbelliferyl Phosphate (DiFMUP, Invitrogen, cat# D6567) as a substrate in 3,3-Dimethylglutaric acid (DMG) buffer (50 mM DMG, pH 7.0, 1 mM EDTA, 18 mM NaCl, 0.01% Triton X-100) at 25 °C. To determine the IC50 values, the assays were performed in 96-well plates (Corning Costar 3915). Series diluted compounds were incubated with 0.5 nM of SHP2 and 0.5 μM of peptide IRS1_pY1172(dPEG8)pY1222 (sequence H2N-LN(pY)IDLDLV(dPEG8)LST(pY)ASINFQK-amide). After 30 min incubation at room temperature, the substrate DiFMUP was added to the reaction (200 μM final concentration, total reaction volume is […]) and incubated at 25 °C for 10 min. The reaction was then quenched by adding 40 μL of 160 μM bpV(Phen) (Sigma–Aldrich, cat# SML0889) solution. The fluorescence signal was monitored with a CLARIOstar Plus Microplate Spectrophotometer (BMG Labtech) using excitation and emission wavelengths of 340 and 450 nm, respectively. The inhibitordose-response curves were analyzed using normalized IC50 regression curve fitting with control-based normalization. Data were fitted using Prism GraphPad 9.2.0.

SHP2 = biological target: T2, SHP2 (Homo sapiens, UniProt Q06124); test: SHP2 degradation by Western blotting in HEK293 cells; format: cell-based; parameters: endogenous in cells; host or cells: HEK293; conditions: HEK293 cells; for SHP2 degradation (in words): 1 and 10 µM; for Degradation at 1 μM / Degradation at 10 μM: 16 h treatment
T2 sequence (Q06124 1-593): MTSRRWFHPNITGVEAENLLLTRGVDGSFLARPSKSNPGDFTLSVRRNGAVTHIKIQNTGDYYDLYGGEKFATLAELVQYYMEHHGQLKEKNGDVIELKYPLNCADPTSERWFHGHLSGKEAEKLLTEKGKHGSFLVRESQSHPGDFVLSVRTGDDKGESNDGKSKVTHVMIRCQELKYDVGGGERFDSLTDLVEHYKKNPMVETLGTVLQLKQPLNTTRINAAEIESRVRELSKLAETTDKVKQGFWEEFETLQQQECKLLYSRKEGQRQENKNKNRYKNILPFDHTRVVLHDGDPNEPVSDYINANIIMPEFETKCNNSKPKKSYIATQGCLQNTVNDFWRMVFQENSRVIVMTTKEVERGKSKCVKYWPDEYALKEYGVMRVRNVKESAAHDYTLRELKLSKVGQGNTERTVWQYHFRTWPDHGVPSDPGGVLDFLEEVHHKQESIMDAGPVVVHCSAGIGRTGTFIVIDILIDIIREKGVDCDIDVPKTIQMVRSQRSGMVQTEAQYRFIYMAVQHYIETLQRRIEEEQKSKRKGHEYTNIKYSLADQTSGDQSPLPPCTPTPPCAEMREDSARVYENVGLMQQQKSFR
Description: HEK293, SKBR3, U2OS, MCF7 and A549 cells were grown in DMEM supplemented with 10% FBS, penicillin (50 units/mL), and streptomycin (50 μg/mL) in a 37 °C incubator containing 5% CO2. […] For western-blot analysis, protein samples were separated by SDS-PAGE, transferred to nitrocellulose membranes, and incubated overnight at 4 °C with corresponding primary antibodies diluted in 5% BSA in phosphate-buffered saline Tween (PBST). SuperSignal™ West Pico PLUS (PI34580; Thermo Scientific) was used to visualize the antibodies in the bioanalytical imaging system (Azure Biosystems c500). […] Anti-PTP1B (ab244207) antibody was purchased from Abcam. For colony formation assay, a total of approximately 200–500 cells were seeded to each well in a 12-well plate.
Supplemental Figures, Schemes, and Tables:
Figure S1. Western blots of degradation assay for PROTAC screening. (A) Degradation assay of
compo un ds i n Table 1 at 1 μM fo r 16 hours in H EK29 3 cells. (B) Degradation assay of compounds in Table
1 at 10 μM for 16 hours in HEK293 cells. (C) Degradation assay of compounds in Table 2 at 1 μM for 16

[1] = Decomposition of CRBN-based PROTACs in DMEM media or water (LCMS); format: physicochemical; conditions: 10 μM, within 3 h, DMEM cell media or water, room temperature
Excerpt: With the desired SHP2 ligand in hand, we synthesized an initial set of PROTAC molecules using pomalidomide or lenalidomide as a ligand of the E3 ligase Cereblon (CRBN), which is one of the most productive E3 in the development of PROTACs. […] This observation is consistent with the fact that phthalimides can be smoothly hydrolyzed in the presence of water and an organic base, as these PROTAC compounds contain a basic aliphatic amino group. Given that this free amino group in the allosteric inhibitors is essential for the binding affinity to SHP2 [28], we reasoned that pomalidomide or lenalidomide-based CRBN ligands are not suitable for the development of in vivo efficacious SHP2 degraders in this study due to stability considerations.
Scheme S1. Decomposition of CRBN-based PROTACs in the presence of water. 10 μM compound 11 or
12 was incubated in DMEM media or water for 3 hours. The fina l co ncentrations of the compounds at
the endpoint were quantified by LCMS.
Table S1. Enzymatic IC50s of first generation SHP2 PROTACs against full length SHP2
Compound ID Linker Structure Linker Length (atom) SHP2 IC50 (n M) […]

SMILES	IC50 (full-length SHP2 (1-528))	SHP2 degradation (in words) (SHP2)	Degradation at 1 μM (SHP2)	Degradation at 10 μM (SHP2)	compound converted into ring-opened products 13 [1]
Cc1ncsc1-c1ccc([C@H](C)NC(=O)[C@@H]2C[C@@H](O)CN2C(=O)[C@@H](NC(=O)CCCCCNC(=O)CCCCCC2(CN)CCN(c3cnc(Sc4cccc(Cl)c4Cl)c(N)n3)CC2)C(C)(C)C)cc1 [SC5, (2S,4R)-1-((S)-2-(6-(6-(1-(6-amino-5-((2,3-dichlorophenyl)thio)pyrazin-2-yl)-4-(aminomethyl)piperidin-4-yl)hexanamido)hexanamido)-3,3-dimethylbutanoyl)-4-hydroxy-N-((S)-1-(4-(4-methylthiazol-5-yl)phenyl)ethyl)pyrrolidine-2-carboxamide]	139 ± 10.4 nM	negligible to modest degradation	<10%	<10%	
Cc1ncsc1-c1ccc([C@H](C)NC(=O)[C@@H]2C[C@@H](O)CN2C(=O)[C@@H](NC(=O)CCCCCCCNC(=O)CCCCCC2(CN)CCN(c3cnc(Sc4cccc(Cl)c4Cl)c(N)n3)CC2)C(C)(C)C)cc1 [SC7, (2S,4R)-1-((S)-2-(8-(6-(1-(6-amino-5-((2,3-dichlorophenyl)thio)pyrazin-2-yl)-4-(aminomethyl)piperidin-4-yl)hexanamido)octanamido)-3,3-dimethylbutanoyl)-4-hydroxy-N-((S)-1-(4-(4-methylthiazol-5-yl)phenyl)ethyl)pyrrolidine-2-carboxamide]	124 ± 21.6 nM	negligible to modest degradation	<10%	15%	
Cc1ncsc1-c1ccc([C@H](C)NC(=O)[C@@H]2C[C@@H](O)CN2C(=O)[C@@H](NC(=O)CCCCCCCCCNC(=O)CCCCCC2(CN)CCN(c3cnc(Sc4cccc(Cl)c4Cl)c(N)n3)CC2)C(C)(C)C)cc1 [SC9, (2S,4R)-1-((S)-2-(10-(6-(1-(6-amino-5-((2,3-dichlorophenyl)thio)pyrazin-2-yl)-4-(aminomethyl)piperidin-4-yl)hexanamido)decanamido)-3,3-dimethylbutanoyl)-4-hydroxy-N-((S)-1-(4-(4-methylthiazol-5-yl)phenyl)ethyl)pyrrolidine-2-carboxamide]	132 ± 8.7 nM	negligible to modest degradation		25%	

Next, values leading:

IC50 (full-length SHP2 (1-528))	SHP2 degradation (in words) (SHP2)	Degradation at 1 μM (SHP2)	Degradation at 10 μM (SHP2)	compound converted into ring-opened products 13 [1]	SMILES
122 ± 19.1 nM		36%			Cc1ncsc1-c1ccc([C@H](C)NC(=O)[C@@H]2C[C@@H](O)CN2C(=O)[C@@H](NC(=O)CCCCCCCCCCNC(=O)CCCCCC2(CN)CCN(c3cnc(Sc4cccc(Cl)c4Cl)c(N)n3)CC2)C(C)(C)C)cc1 [SC10, (2S,4R)-1-((S)-2-(11-(6-(1-(6-amino-5-((2,3-dichlorophenyl)thio)pyrazin-2-yl)-4-(aminomethyl)piperidin-4-yl)hexanamido)undecanamido)-3,3-dimethylbutanoyl)-4-hydroxy-N-((S)-1-(4-(4-methylthiazol-5-yl)phenyl)ethyl)pyrrolidine-2-carboxamide]
105 ± 15.6 nM		27%	64%		Cc1ncsc1-c1ccc([C@H](C)NC(=O)[C@@H]2C[C@@H](O)CN2C(=O)[C@@H](NC(=O)CCCCCCCCCCCNC(=O)CCCCCC2(CN)CCN(c3cnc(Sc4cccc(Cl)c4Cl)c(N)n3)CC2)C(C)(C)C)cc1 [SC11, (2S,4R)-1-((S)-2-(12-(6-(1-(6-amino-5-((2,3-dichlorophenyl)thio)pyrazin-2-yl)-4-(aminomethyl)piperidin-4-yl)hexanamido)dodecanamido)-3,3-dimethylbutanoyl)-4-hydroxy-N-((S)-1-(4-(4-methylthiazol-5-yl)phenyl)ethyl)pyrrolidine-2-carboxamide]
				over 90%	NCC1(CCCCCC(=O)NCCCCCC(=O)Nc2cccc3c2C(=O)N(C2CCC(=O)NC2=O)C3=O)CCN(c2cnc(Sc3cccc(Cl)c3Cl)c(N)n2)CC1 (stereo not drawn) [compound 11, 6-(1-(6-amino-5-((2,3-dichlorophenyl)thio)pyrazin-2-yl)-4-(aminomethyl)piperidin-4-yl)-N-(6-((2-(2,6-dioxopiperidin-3-yl)-1,3-dioxoisoindolin-4-yl)amino)-6-oxohexyl)hexanamide]
				over 90%	NCC1(CCCCCC(=O)NCCCCCC(=O)Nc2cccc3c2CN(C2CCC(=O)NC2=O)C3=O)CCN(c2cnc(Sc3cccc(Cl)c3Cl)c(N)n2)CC1 (stereo not drawn) [compound 12, 6-(1-(6-amino-5-((2,3-dichlorophenyl)thio)pyrazin-2-yl)-4-(aminomethyl)piperidin-4-yl)-N-(6-((2-(2,6-dioxopiperidin-3-yl)-1-oxoisoindolin-4-yl)amino)-6-oxohexyl)hexanamide]
